Test results as given in patent US10703733B2, “MCL-1 inhibitors” (Gilead Sciences, Inc., priority 2018, dated 2020).

target: MCL-1/Bim interaction (recombinant human MCL-1 protein, residues 171-327; biotinylated human Bim peptide, residues 51-76) (Homo sapiens (Human), UniProt Q07820); assay: MCL-1/Bim Binding AlphaLISA Assay; details: 0.0625 nM 6xHis-Mcl-1 (171-327), 0.0625 nM biotinylated-Bim peptide
Description: MCL-1/Bim Binding AlphaLISA Assay.
Inhibition of the MCL-1 and Bim interaction was measured in the following AlphaLISA assay.
Recombinant human MCL-1 protein (C-terminal 6×His Tagged Mcl-1 containing residues 171-327) was generated at Gilead Sciences, Inc. (Foster City, Calif.). A biotinylated peptide derived from human Bim (residues 51-76) was purchased from CPC Scientific (Sunnyvale, Calif.). (CPC 834113). AlphaLISA anti-6His-acceptor beads (AL128R), AlphaScreen Streptavidin donor beads (6760002B), and Proxiplate-384 Plus (6008289) were purchased from PerkinElmer.
The AlphaLISA assay was performed in a 384-well Proxiplate in a total volume of […]. The reaction mixture contained 0.0625 nM 6×His-Mcl-1 (171-327), 0.0625 nM biotinylated-Bim peptide, 10 μg/mL AlphaLISA anti-6×His-AlphaLISA acceptor beads, […] AlphaScreen streptavidin donor beads, and serially diluted test compounds in the binding buffer (20 mM Hepes, pH 7.5 (Teknova H1035); 150 mM NaCl (Promega V4221); 0.002% Brij 35 (Thermo Scientific 20150); 1 mM Dithiothreitol (DTT) Solution (Affymetrix 70726); 0.01% BSA (BioLabs B9000S)). 1,000×test compounds were pre-spotted onto 384-well Proxiplate (Labcyte Echo) by Echo 555 Liquid Handler (Labcyte Inc., San Jose, Calif.) followed by incubation of 5 μl Mcl-1(171-327) for 1 hour. Then 5 μL Bim (51-76) was added and incubated for 2 hours. Five μL AlphaLISA anti-6His-AlphaLISA acceptor beads were then added for 1 hour followed by addition of 5 μL AlphaScreen streptavidin donor beads for 1 hour. The reaction plates were then read on an Envision multimode reader (PerkinElmer) using AlphaScreen settings. […] Percent inhibition was calculated as shown below: % Inhibition=100%*(Well−Neg)/(Pos−Neg) Neg: negative control, DMSO Pos: positive control, no Mcl-1 protein, no biotinylated-Bim peptide

MCL-1/Bim interaction (recombinant human MCL-1 protein, residues 171-327; biotinylated human Bim peptide, residues 51-76), sequence (Q07820 171-327): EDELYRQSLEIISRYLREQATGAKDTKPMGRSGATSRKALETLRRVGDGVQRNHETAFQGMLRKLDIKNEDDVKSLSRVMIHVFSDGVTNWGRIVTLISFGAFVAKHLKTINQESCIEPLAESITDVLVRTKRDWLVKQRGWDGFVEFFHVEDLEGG

First: COCC(=O)NS1(=O)=NC(=O)c2ccc3c(c2)N(C[C@@H]2CC[C@H]2[C@@H](OC)/C=C/CCC1)C[C@@]1(CCCc2cc(Cl)ccc21)CO3 (single isomer, unassigned) [Example 8]
Second: CO[C@H]1/C=C/CCC[S@@](=O)(NC(=O)c2cnn(C)c2)=NC(=O)c2ccc3c(c2)N(C[C@@H]2CC[C@H]21)C[C@@]1(CCCc2cc(Cl)ccc21)CO3 [Example 113]
The IC50 of the first is 15-fold higher: 0.7 nM for the first, 0.046 nM for the second. The second is the more potent here.

Compared with CO[C@H]1/C=C/C[C@H](C)C[S@](N)(=O)=NC(=O)c2ccc3c(c2)N(C[C@@H]2CC[C@H]21)C[C@@]1(CCCc2cc(Cl)ccc21)CO3 (single isomer, unassigned) [Example 109], CO[C@H]1/C=C/C[C@H](C)[C@@H](C)[S@](N)(=O)=NC(=O)c2ccc3c(c2)N(C[C@@H]2CC[C@H]21)C[C@@]1(CCCc2cc(Cl)ccc21)CO3 (single isomer, unassigned) [Example 110] is 4-fold lower in IC50: 10.6 nM for the first, 2.63 nM for the second. The second is the more potent here.

Going from COc1nn(C)cc1C(=O)NS1(=O)=NC(=O)c2ccc3c(c2)N(C[C@@H]2CC[C@H]2[C@@H](OC)/C=C/C[C@H](C)C1)C[C@@]1(CCCc2cc(Cl)ccc21)CO3 (single isomer, unassigned) [Example 388] to COc1nn(C)cc1C(=O)N[S@@]1(=O)=NC(=O)c2ccc3c(c2)N(C[C@@H]2CC[C@H]2[C@@H](OC)/C=C/C[C@H](C)C1)C[C@@]1(CCCc2cc(Cl)ccc21)CO3 [Example 154], the IC50 falls from 1.06 nM to 0.05 nM (21-fold). The second is the more potent here.

First: CCn1cc(C(=O)N[S@@]2(=O)=NC(=O)c3ccc4c(c3)N(C[C@@H]3CC[C@H]3[C@@H](OC)/C=C/CCC2)C[C@@]2(CCCc3cc(Cl)ccc32)CO4)cn1 [Example 104]
Second: CO[C@H]1/C=C/C[C@H](C)C[S@@](=O)(NC(=O)c2cnn(C3CC3)c2)=NC(=O)c2ccc3c(c2)N(C[C@@H]2CC[C@H]21)C[C@@]1(CCCc2cc(Cl)ccc21)CO3 [Example 151]
The IC50 of the first is 2.8-fold higher: 0.1 nM for the first, 0.036 nM for the second.

CO[C@H]1/C=C/C[C@H](C)C[S@@](=O)(NC(=O)COC2CCOCC2)=NC(=O)c2ccc3c(c2)N(C[C@@H]2CC[C@H]21)C[C@@]1(CCCc2cc(Cl)ccc21)CO3 [Example 106] and CO[C@H]1/C=C/C[C@H](C)[C@@H](C)[S@@](=O)(NC(=O)COC2CCOCC2)=NC(=O)c2ccc3c(c2)N(C[C@@H]2CC[C@H]21)C[C@@]1(CCCc2cc(Cl)ccc21)CO3 [Example 108] are the same in IC50: 0.1 nM for the first, 0.1 nM for the second.

First: CO[C@H]1/C=C/C[C@H](C)C[S@@](=O)(NC(=O)NCC2CC2)=NC(=O)c2ccc3c(c2)N(C[C@@H]2CC[C@H]21)C[C@@]1(CCCc2cc(Cl)ccc21)CN3 [Example 107]
Second: COC[C@H]1C[C@H](NC(=O)N[S@@]2(=O)=NC(=O)c3ccc4c(c3)N(C[C@@H]3CC[C@H]3[C@@H](OC)/C=C/C[C@H](C)C2)C[C@@]2(CCCc3cc(Cl)ccc32)CO4)C1 [Example 200]
The IC50 of the first is 1.6-fold higher: 0.1 nM for the first, 0.064 nM for the second.

CO[C@H]1/C=C/C[C@H](C)C[S@@](=O)(NC(=O)N[C@H]2C[C@H]2F)=NC(=O)c2ccc3c(c2)N(C[C@@H]2CC[C@H]21)C[C@@]1(CCCc2cc(Cl)ccc21)CO3 [Example 115] and CO[C@H]1/C=C/C[C@H](C)C[S@@](=O)(NC(=O)N[C@H]2[C@@H]3COC[C@@H]32)=NC(=O)c2ccc3c(c2)N(C[C@@H]2CC[C@H]21)C[C@@]1(CCCc2cc(Cl)ccc21)CO3 [Example 206] are within 1.5-fold of each other in IC50: 0.068 nM for the first, 0.047 nM for the second.

Going from COC1CCCn2cc(C(=O)N[S@@]3(=O)=NC(=O)c4ccc5c(c4)N(C[C@@H]4CC[C@H]4[C@@H](OC)/C=C/C[C@H](C)C3)C[C@@]3(CCCc4cc(Cl)ccc43)CO5)cc2C1 (stereo partly drawn) [Example 190] to CO[C@H]1/C=C/C[C@H](C)C[S@@](=O)(NC(=O)c2cc(CN(C)C3CCOCC3)n(C)c2)=NC(=O)c2ccc3c(c2)N(C[C@@H]2CC[C@H]21)C[C@@]1(CCCc2cc(Cl)ccc21)CO3 [Example 241], the IC50 rises from 0.055 nM to 0.087 nM (1.6-fold). The first is the more potent here.

Compared with CO[C@H]1/C=C/C[C@H](C)C[S@@](=O)(NC(=O)N[C@H]2C[C@@](C)(OC)C2)=NC(=O)c2ccc3c(c2)N(C[C@@H]2CC[C@H]21)C[C@@]1(CCCc2cc(Cl)ccc21)CO3 [Example 193], COc1nnc(C)cc1C(=O)N[S@@]1(=O)=NC(=O)c2ccc3c(c2)N(C[C@@H]2CC[C@H]2[C@@H](OC)/C=C/C[C@H](C)C1)C[C@@]1(CCCc2cc(Cl)ccc21)CO3 [Example 460] is 1.9-fold higher in IC50: 0.046 nM for the first, 0.089 nM for the second.

First: CCOc1nn(C)cc1C(=O)N[S@@]1(=O)=NC(=O)c2ccc3c(c2)N(C[C@@H]2CC[C@H]2[C@@H](OC)/C=C/C[C@H](C)C1)C[C@@]1(CCCc2cc(Cl)ccc21)CO3 [Example 194]
Second: COCCOc1nn(C)cc1C(=O)N[S@@]1(=O)=NC(=O)c2ccc3c(c2)N(C[C@@H]2CC[C@H]2[C@@H](OC)/C=C/C[C@H](C)C1)C[C@@]1(CCCc2cc(Cl)ccc21)CO3 [Example 216]
The IC50 of the first is 6.5-fold lower: 0.03 nM for the first, 0.196 nM for the second. The first is the more potent here.

Going from COC[C@H]1Cn2cc(C(=O)N[S@@]3(=O)=NC(=O)c4ccc5c(c4)N(C[C@@H]4CC[C@H]4[C@@H](OC)/C=C/C[C@H](C)[C@H]3C)C[C@@]3(CCCc4cc(Cl)ccc43)CO5)cc2CO1 [Example 215] to COCC1(C)Cn2cc(C(=O)N[S@@]3(=O)=NC(=O)c4ccc5c(c4)N(C[C@@H]4CC[C@H]4[C@@H](O)/C=C/C[C@H](C)[C@H]3C)C[C@@]3(CCCc4cc(Cl)ccc43)CO5)cc2CO1 (stereo partly drawn) [Example 255], the IC50 falls from 0.203 nM to 0.096 nM (2.1-fold). The second is the more potent here.

Going from C[C@@H]1[C@@H](C)C/C=C/[C@H](O)[C@@H]2CC[C@H]2CN2C[C@@]3(CCCc4cc(Cl)ccc43)COc3ccc(cc32)C(=O)N=[S@]1(=O)NC(=O)c1cc2n(c1)CC1(COC1)OC2 [Example 239] to C[C@@H]1[C@@H](C)C/C=C/[C@H](O)[C@@H]2CC[C@H]2CN2C[C@@]3(CCCc4cc(Cl)ccc43)COc3ccc(cc32)C(=O)N=[S@]1(=O)NC(=O)c1cc2n(c1)CC(C)(C)OC2 [Example 264], the IC50 rises from 0.042 nM to 0.263 nM (6.3-fold).

Compared with C[C@@H]1[C@@H](C)C/C=C/[C@H](O)[C@@H]2CC[C@H]2CN2C[C@@]3(CCCc4cc(Cl)ccc43)COc3ccc(cc32)C(=O)N=[S@]1(=O)NC(=O)c1cc2n(c1)CC(C)(CN1CCOCC1)OC2 (stereo partly drawn) [Example 259], C[C@@H]1[C@@H](C)C/C=C/[C@H](O)[C@@H]2CC[C@H]2CN2C[C@@]3(CCCc4cc(Cl)ccc43)COc3ccc(cc32)C(=O)N=[S@]1(=O)NC(=O)N[C@@H]1C[C@H]1C(F)F [Example 260] is 1.6-fold lower in IC50: 0.098 nM for the first, 0.061 nM for the second.

COc1nn(C)cc1C(=O)N[S@@]1(=O)=NC(=O)c2ccc3c(c2)N(C[C@@H]2CC[C@H]2[C@@H](OC)/C=C/[C@H](O)[C@H](C)C1)C[C@@]1(CCCc2cc(Cl)ccc21)CO3 [Example 279] and COCCO[C@H]1/C=C/[C@H](OC)[C@@H]2CC[C@H]2CN2C[C@@]3(CCCc4cc(Cl)ccc43)COc3ccc(cc32)C(=O)N=[S@](=O)(NC(=O)c2cn(C)nc2OC)C[C@H]1C [Example 291] are within 1.5-fold of each other in IC50: 0.041 nM for the first, 0.039 nM for the second.

Compared with CO[C@H]1/C=C/C[C@H](C)[C@@H](C)[S@@](=O)(NC(=O)COC2COC2)=NC(=O)c2ccc3c(c2)N(C[C@@H]2CC[C@H]21)C[C@@]1(CCCc2cc(Cl)ccc21)CO3 [Example 407], CO[C@H]1/C=C/C[C@H](C)C[S@@](=O)(NC(=O)N2CC(Oc3ccccn3)C2)=NC(=O)c2ccc3c(c2)N(C[C@@H]2CC[C@H]21)C[C@@]1(CCCc2cc(Cl)ccc21)CO3 [Example 463] is 1.9-fold higher in IC50: 0.113 nM for the first, 0.219 nM for the second. The first is the more potent here.
